# Measurements: US12077537B2 (Gilead Sciences, Inc., priority 2020, dated 2024)
# Tested on: HIV-IIIb
# Test: Antiviral assay in MT4 cells
# Format: cell-based
# Conditions: Human immunodeficiency virus 1, MT4, 120 h; MT-4 cells mixed with HIV-IIIb at m.o.i. 0.003; 5 days at 37° C.; CellTiter-Glo luminescence; 50% decrease in signal, a measure of HIV-1 replication
# Summary of the method: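 Compound, tested at ten 3-fold dilutions in quadruplicate in 10% FBS medium, received MT-4 cells pre-mixed 1 hour with HIV-IIIb (m.o.i. 0.003). Protection was read as luminescent cell viability (CellTiter-Glo) after 5 days' culture at 37° C.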
row,Structure (SMILES),EC50 [nM]
1,"CN(C)CCNc1nc2nc(C(Cc3cc(F)cc(F)c3)NC(=O)Cn3nc(C(F)F)c4c3C(F)(F)CCC4(F)F)c(-c3ccc(F)c(C#N)c3)cc2s1 (centres unmarked) [Compound 21, N-(1-(6-(3-cyano-4-fluorophenyl)-2-((2-(dimethylamino)ethyl)amino)thiazolo[4,5-b]pyridin-5-yl)-2-(3,5-difluorophenyl)ethyl)-2-(3-(difluoromethyl)-4,4,7,7-tetrafluoro-4,5,6,7-tetrahydro-1H-indazol-1-yl)acetamide]",≥ 53200
2,"CN1CCN(c2nc3nc([C@H](Cc4cc(F)cc(F)c4)NC(=O)Cn4nc(C(F)F)c5c4C(F)(F)CCC5(F)F)c(-c4ccc(F)c(C(N)=O)c4)cc3s2)CC1 [Compound 7, (S)-5-(5-(1-(2-(3-(difluoromethyl)-4,4,7,7-tetrafluoro-4,5,6,7-tetrahydro-1H-indazol-1-yl)acetamido)-2-(3,5-difluorophenyl)ethyl)-2-(4-methylpiperazin-1-yl)thiazolo[4,5-b]pyridin-6-yl)-2-fluorobenzamide]",127
3,"Cn1nc(NS(C)(=O)=O)c2cccc(-c3cc4sc(N5CC(C(N)=O)C5)nc4nc3[C@H](Cc3cc(F)cc(F)c3)NC(=O)Cn3nc(C(F)(F)F)c4c3C(F)(F)[C@@H]3C[C@H]43)c21 [Example 73, 1-(5-((S)-1-(2-((3bS,4aR)-5,5-difluoro-3-(trifluoromethyl)-3b,4,4a,5-tetrahydro-1H-cyclopropa[3,4]cyclopenta[1,2-c]pyrazol-1-yl)acetamido)-2-(3,5-difluorophenyl)ethyl)-6-(1-methyl-3-(methylsulfonamido)-1H-indazol-7-yl)thiazolo[4,5-b]pyridin-2-yl)azetidine-3-carboxamide]",67.7
4,"NC(=O)c1cc(-c2cc3sc(N4CCN(c5nc6ccccc6[nH]5)CC4)nc3nc2[C@H](Cc2cc(F)cc(F)c2)NC(=O)Cn2nc(C(F)F)c3c2C2CC2CC3)ccc1F (stereo partly drawn) [Compound 46, 5-(2-(4-(1H-benzo[d]imidazol-2-yl)piperazin-1-yl)-5-((1S)-1-(2-(3-(difluoromethyl)-5,5a,6,6a-tetrahydrocyclopropa[g]indazol-1(4H)-yl)acetamido)-2-(3,5-difluorophenyl)ethyl)thiazolo[4,5-b]pyridin-6-yl)-2-fluorobenzamide]",85.2
5,"O=C(Cn1nc(C(F)F)c2c1C(F)(F)CCC2(F)F)N[C@H](Cc1cc(F)cc(F)c1)c1nc2ncsc2cc1-c1ccc(F)cc1 [Compound 17, (R)-2-(3-(difluoromethyl)-4,4,7,7-tetrafluoro-4,5,6,7-tetrahydro-1H-indazol-1-yl)-N-(2-(3,5-difluorophenyl)-1-(6-(4-fluorophenyl)thiazolo[4,5-b]pyridin-5-yl)ethyl)acetamide]",7990
6,"COCCOCCNc1nc2nc([C@H](Cc3cc(F)cc(F)c3)NC(=O)Cn3nc(C(F)F)c4c3C(F)(F)CCC4(F)F)c(-c3ccc(F)c(C(N)=O)c3)cc2s1 [Compound 4, (S)-5-(5-(1-(2-(3-(difluoromethyl)-4,4,7,7-tetrafluoro-4,5,6,7-tetrahydro-1H-indazol-1-yl)acetamido)-2-(3,5-difluorophenyl)ethyl)-2-((2-(2-methoxyethoxy)ethyl)amino)thiazolo[4,5-b]pyridin-6-yl)-2-fluorobenzamide]",154
7,"NC(=O)c1cc(-c2cc3sc(N4CCN(c5ccc(-c6ncc[nH]6)cc5)CC4)nc3nc2[C@H](Cc2cc(F)cc(F)c2)NC(=O)Cn2nc(C(F)F)c3c2C2CC2CC3)ccc1F (stereo partly drawn) [Compound 41, 5-(2-(4-(4-(1H-imidazol-2-yl)phenyl)piperazin-1-yl)-5-((1S)-1-(2-(3-(difluoromethyl)-5,5a,6,6a-tetrahydrocyclopropa[g]indazol-1(4H)-yl)acetamido)-2-(3,5-difluorophenyl)ethyl)thiazolo[4,5-b]pyridin-6-yl)-2-fluorobenzamide]",98.1

# The next compounds have a lower EC50 than those just listed; values first:
row,EC50 [nM],Structure (SMILES)
1,43.7,"Cn1nc(NS(C)(=O)=O)c2cccc(-c3cc4sc(-c5cn[nH]c5)nc4nc3C(Cc3cc(F)cc(F)c3)NC(=O)Cn3nc(C(F)(F)F)c4c3C(F)(F)[C@@H]3C[C@H]43)c21 (stereo partly drawn) [Compound 132, 2-((3bS,4aR)-5,5-difluoro-3-(trifluoromethyl)-3b,4,4a,5-tetrahydro-1H-cyclopropa[3,4]cyclopenta[1,2-c]pyrazol-1-yl)-N-(2-(3,5-difluorophenyl)-1-(6-(1-methyl-3-(methylsulfonamido)-1H-indazol-7-yl)-2-(1H-pyrazol-4-yl)thiazolo[4,5-b]pyridin-5-yl)ethyl)acetamide]"
2,38.9,"CSc1nc2nc([C@H](Cc3cc(F)cc(F)c3)NC(=O)Cn3nc(C(F)(F)F)c4c3C(F)(F)[C@@H]3C[C@H]43)c(-c3ccc4c(c3)C(=O)NC4)cc2s1 [Compound 142, 2-((3bS,4aR)-5,5-difluoro-3-(trifluoromethyl)-3b,4,4a,5-tetrahydro-1H-cyclopropa[3,4]cyclopenta[1,2-c]pyrazol-1-yl)-N—((S)-2-(3,5-difluorophenyl)-1-(2-(methylthio)-6-(3-oxoisoindolin-5-yl)thiazolo[4,5-b]pyridin-5-yl)ethyl)acetamide]"
3,32,"Cn1nc(NS(C)(=O)=O)c2cccc(-c3cc4sc(N5CCNC(=O)C5)nc4nc3[C@H](Cc3cc(F)cc(F)c3)NC(=O)Cn3nc(C(F)(F)F)c4c3C(F)(F)[C@@H]3C[C@H]43)c21 [Example 72, 2-((3bS,4aR)-5,5-difluoro-3-(trifluoromethyl)-3b,4,4a,5-tetrahydro-1H-cyclopropa[3,4]cyclopenta[1,2-c]pyrazol-1-yl)-N—((S)-2-(3,5-difluorophenyl)-1-(6-(1-methyl-3-(methylsulfonamido)-1H-indazol-7-yl)-2-(3-oxopiperazin-1-yl)thiazolo[4,5-b]pyridin-5-yl)ethyl)acetamide]"
4,21.8,"Cn1nc(NS(C)(=O)=O)c2cccc(-c3cc4sc(N5CC6(CCN6)C5)nc4nc3[C@H](Cc3cc(F)cc(F)c3)NC(=O)Cn3nc(C(F)(F)F)c4c3C(F)(F)[C@@H]3C[C@H]43)c21 [Example 85, 2-((3bS,4aR)-5,5-difluoro-3-(trifluoromethyl)-3b,4,4a,5-tetrahydro-1H-cyclopropa[3,4]cyclopenta[1,2-c]pyrazol-1-yl)-N—((S)-2-(3,5-difluorophenyl)-1-(6-(1-methyl-3-(methylsulfonamido)-1H-indazol-7-yl)-2-(1,6-diazaspiro[3.3]heptan-6-yl)thiazolo[4,5-b]pyridin-5-yl)ethyl)acetamide]"
5,18,"Cn1nc(NS(C)(=O)=O)c2c(Cl)ccc(-c3cc4[nH]c(=O)ccc4nc3C(Cc3cc(F)cc(F)c3)NC(=O)Cn3nc(C(F)F)c4c3C(F)(F)[C@@H]3C[C@H]43)c21 (stereo partly drawn) [Compound 135, N-(1-(3-(4-chloro-1-methyl-3-(methylsulfonamido)-1H-indazol-7-yl)-6-oxo-5,6-dihydro-1,5-naphthyridin-2-yl)-2-(3,5-difluorophenyl)ethyl)-2-((3bS,4aR)-3-(difluoromethyl)-5,5-difluoro-3b,4,4a,5-tetrahydro-1H-cyclopropa[3,4]cyclopenta[1,2-c]pyrazol-1-yl)acetamide]"
6,15.3,"Cn1nc(NS(C)(=O)=O)c2cccc(-c3cc4sc(N5CCNCC5)nc4nc3[C@H](Cc3cc(F)cc(F)c3)NC(=O)Cn3nc(C(F)(F)F)c4c3C(F)(F)[C@@H]3C[C@H]43)c21 [Example 86, 2-((3bS,4aR)-5,5-difluoro-3-(trifluoromethyl)-3b,4,4a,5-tetrahydro-1H-cyclopropa[3,4]cyclopenta[1,2-c]pyrazol-1-yl)-N—((S)-2-(3,5-difluorophenyl)-1-(6-(1-methyl-3-(methylsulfonamido)-1H-indazol-7-yl)-2-(piperazin-1-yl)thiazolo[4,5-b]pyridin-5-yl)ethyl)acetamide]"
7,6.4,"Cn1nc(NS(C)(=O)=O)c2c(Cl)ccc(-c3cc4[nH]c(C(C)(C)O)nc4nc3[C@H](Cc3cc(F)cc(F)c3)NC(=O)Cn3nc(C(F)(F)F)c4c3C(F)(F)[C@@H]3C[C@H]43)c21 [Example 106, N—((S)-1-(6-(4-chloro-1-methyl-3-(methylsulfonamido)-1H-indazol-7-yl)-2-(2-hydroxypropan-2-yl)-1H-imidazo[4,5-b]pyridin-5-yl)-2-(3,5-difluorophenyl)ethyl)-2-((3bS,4aR)-5,5-difluoro-3-(trifluoromethyl)-3b,4,4a,5-tetrahydro-1H-cyclopropa[3,4]cyclopenta[1,2-c]pyrazol-1-yl)acetamide]"
8,4.9,"Cn1nc(NS(C)(=O)=O)c2c(Cl)ccc(-c3cc4[nH]c(C(C)(C)O)nc4nc3[C@H](Cc3cc(F)cc(F)c3)NC(=O)Cn3nc(C(F)F)c4c3C(F)(F)[C@@H]3C[C@H]43)c21 [Example 105, N—((S)-1-(6-(4-chloro-1-methyl-3-(methylsulfonamido)-1H-indazol-7-yl)-2-(2-hydroxypropan-2-yl)-1H-imidazo[4,5-b]pyridin-5-yl)-2-(3,5-difluorophenyl)ethyl)-2-((3bS,4aR)-3-(difluoromethyl)-5,5-difluoro-3b,4,4a,5-tetrahydro-1H-cyclopropa[3,4]cyclopenta[1,2-c]pyrazol-1-yl)acetamide]"
9,4.4,"CC(C)c1nc2nc([C@H](Cc3cc(F)cc(F)c3)NC(=O)Cn3nc(C(F)F)c4c3C(F)(F)[C@@H]3C[C@H]43)c(-c3ccc(Cl)c4c(NS(C)(=O)=O)nn(C)c34)cc2[nH]1 [Example 104, N—((S)-1-(6-(4-chloro-1-methyl-3-(methylsulfonamido)-1H-indazol-7-yl)-2-isopropyl-TH-imidazo[4,5-b]pyridin-5-yl)-2-(3,5-difluorophenyl)ethyl)-2-((3bS,4aR)-3-(difluoromethyl)-5,5-difluoro-3b,4,4a,5-tetrahydro-TH-cyclopropa[3,4]cyclopenta[1,2-c]pyrazol-1-yl)acetamide]"
10,1.3,"Cn1nc(N)c2cccc(-c3cc4sc(N5CC(C)(O)C5)nc4nc3[C@H](Cc3cc(F)cc(F)c3)NC(=O)Cn3nc(C(F)F)c4c3C3CC3CC4)c21 (stereo partly drawn) [Compound 50, N—((S)-1-(6-(3-amino-1-methyl-1H-indazol-7-yl)-2-(3-hydroxy-3-methylazetidin-1-yl)thiazolo[4,5-b]pyridin-5-yl)-2-(3,5-difluorophenyl)ethyl)-2-(3-(difluoromethyl)-5,5a,6,6a-tetrahydrocyclopropa[g]indazol-1(4H)-yl)acetamide]"
